Test results: patent US20050136126A1, “Agent for reduction of scar formation by using wound alkalinization” (CambridgeMED, Inc., priority 2003, published 2005)
Read-outs that look alike come from different tables or passages of the source.

Key:
[1] = From the text: Regarding concentrations and amounts of the various reagents, please refer to Tables 1 and 2 below: […]
[2] = test system: incised wound on the dorsum of adult white rats; settings: for deposited collagen (amount, appearance) / collagen fibers (density, structure) vs normal dermis: Trichrome dyeing
Method: On the dorsum of adult white rats, skin near the limbs which are on the same distance from the median line was incised in about 10 mm long. In a sham control group, 0.1 cc distilled water was injected to the dermis of the incised wound and simply sutured.
On 14th and 56th days from the experiments, tissues of ten adult white rats were taken, fixed in 10% neutral buffer formalin for 24 hours, embedded in paraffin throughout the normal tissue treating process.
With a tissue sample, which was cut perpendicularly to the middle of the wound, the width of the scar by use of image analysis program (Image-Pro version 3.0, Microsoft) under 40 magnification was measured, and the differences between the groups were compared. The result of the measurement was confirmed by Student t-test.
On the dorsum of adult white rats, skin near the limbs which are on the same distance from the median line was incised in about 10 mm long. After incision, the control group was simply sutured.

[3] = test system: TGF-β; experiment: Experiment of TGF-β inactivation: histology and width of scar after TGF-β injection into incised wound; format: in vivo, bovine; settings: 8 weeks; Trichrome dyeing
[4] = 2 weeks, hematoxylin-eosin dyeing, ×40

Row | Compound | pH value ([1]; 0.05 mEq) | pH value ([1]; 0.1 mEq) | pH value ([1]; 0.5 mEq) | pH value ([1]; 1.0 mEq) | degree of deposition of inflammatory cells vs control group [2, 4] | width of the scar vs control group (histological observation) [2, 4] | scar appearance ([2]; 8 weeks, hematoxylin-eosin dyeing, ×40) | fibroblast cells ([2]; 8 weeks, hematoxylin-eosin dyeing, ×400) | deposited collagen (amount, appearance) ([2]; 2 weeks) | collagen fibers (density, structure) vs normal dermis ([2]; 8 weeks) | collagen fibers (density, structure) vs normal dermis [3]
1 | O=C([O-])O.[Na+] [sodium bicarbonate] | 8.83 | 9.22 | 9.82 | 10.36 | not much difference | thinner than that of the control group | thin and unnoticeable scar | Not many of the fibroblast cells were found |  |  | 
2 | [K+].[OH-] [KOH, potassium hydroxide] | 8.56 | 9.40 | 9.74 | 10.51 |  | thinner than that of the control group |  |  | meager compared to that of the control group | not different from that of the normal dermis nearby | 
3 | TGF-β |  |  |  |  |  |  |  |  |  |  | clearly showed the scar
4 | [Na+].[OH-] [NaOH, sodium hydroxide] | 8.55 | 9.38 | 9.87 | 10.50 |  | thinner than that of the control group |  |  | meager compared to that of the control group | not different from that of the normal dermis nearby | 
